Test results taken from patent publication US8658646B2, “Pyrrolopyrazine kinase inhibitors” (Hoffmann-LaRoche Inc., priority 2011, dated 2014).
“And” between values parts separate entries of the source, which are not always exact repeats. Equal entries are not always repeated.

Columns and labels:
[1] = target: T1, recombinant human SYK360-635 (Homo sapiens, UniProt P43405); assay: Determination of IC50 of Spleen Tyrosine Kinase (SYK) inhibition, 33P ATP filtration assay; type: biochemical; details: SYK aa 360-635 0.5 nM; ATP 20 μM, peptide 5 μM, 0.1% BSA; read-out: SYK_ENZYME_FILTRATION/v1, BSA
T1 construct: made in house

[2] = target: T2, JAK3: Recombinant human kinase domain (Homo sapiens, UniProt P52333); assay: Determination of IC50 of Janus Kinase (JAK) inhibition, radioactive end-point 33P-ATP assay, JAK3; type: biochemical; details: ATP 1.5 uM, peptide 50 uM, 20 minutes, read-out: JAK3-INHIB-DR/v1~NO ADDITIVE~Enzyme_Conc = 100
T2 construct: JAK3: Recombinant human kinase domain from Millipore (Cat #14-629) or prepared; purchased Millipore 14-629
T2 sequence (P52333 822-1111 limits assumed): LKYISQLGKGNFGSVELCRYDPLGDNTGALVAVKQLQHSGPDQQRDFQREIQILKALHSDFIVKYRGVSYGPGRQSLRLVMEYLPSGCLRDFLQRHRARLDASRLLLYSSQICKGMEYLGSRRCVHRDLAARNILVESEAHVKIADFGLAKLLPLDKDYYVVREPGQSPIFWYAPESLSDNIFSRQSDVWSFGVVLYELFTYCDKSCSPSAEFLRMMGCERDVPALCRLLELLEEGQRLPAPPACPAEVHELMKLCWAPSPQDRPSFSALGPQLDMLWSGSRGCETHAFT

With `Cn1nc(-c2cnc3[nH]cc(C(=O)NC4CCOCC4)c3n2)c2ccc(Cl)cc21` [Example I-112, 2-(6-Chloro-1-methyl-1H-indazol-3-yl)-5H-pyrrolo[2,3-b]pyrazine-7-carboxylic acid (tetrahydro-pyran-4-yl)-amide] the IC50 [1] was 33.3 nM and the IC50 [2] was 14.6 nM.

Compound `C[C@@H](NC(=O)c1c[nH]c2ncc(-c3nn(C)c4cc(F)ccc34)nc12)C1COC1` [Example I-252, 2-(6-Fluoro-1-methyl-1H-indazol-3-yl)-5H-pyrrolo[2,3-b]pyrazine-7-carboxylic acid ((R)-1-oxetan-3-yl-ethyl)-amide] has an IC50 [1] of 67.2 nM and an IC50 [2] of 19.4 nM.

`CC[C@H](CO)NC(=O)c1c[nH]c2ncc(-c3nn(C)c4cc(Cl)ccc34)nc12` [Example I-161, 2-(6-Chloro-1-methyl-1H-indazol-3-yl)-5H-pyrrolo[2,3-b]pyrazine-7-carboxylic acid ((R)-1-hydroxymethyl-propyl)-amide] showed an IC50 [1] of 17.3 nM and an IC50 [2] of 16.3 nM.

In the case of `COC[C@@H](NC(=O)c1c[nH]c2ncc(-c3nn(C)c4cc(F)ccc34)nc12)[C@H](C)OC` [Example I-189, 2-(6-Fluoro-1-methyl-1H-indazol-3-yl)-5H-pyrrolo[2,3-b]pyrazine-7-carboxylic acid ((1R,2S)-2-methoxy-1-methoxymethyl-propyl)-amide], the IC50 [1] is reported as 248 nM and the IC50 [2] is reported as 18.5 nM.

`Cn1nc(-c2cnc3[nH]cc(C(=O)N[C@H]4CC[C@H](N)CC4)c3n2)c2ccc(Cl)cc21` [Example I-146, 2-(6-Chloro-1-methyl-1H-indazol-3-yl)-5H-pyrrolo[2,3-b]pyrazine-7-carboxylic acid (trans-4-amino-cyclohexyl)-amide] was tested, and the IC50 [1] was 8.65 nM and the IC50 [2] was 18.3 nM.

`Cn1nc(-c2cnc3[nH]cc(C(=O)N[C@H]4CC[C@@H](CC#N)C4)c3n2)c2ccc(F)cc21` (relative stereo) [Example I-57, 2-(6-Fluoro-1-methyl-1H-indazol-3-yl)-5H-pyrrolo[2,3-b]pyrazine-7-carboxylic acid (cis-3-cyanomethyl-cyclopentyl)-amide] showed an IC50 [1] of 44.4 nM and an IC50 [2] of 10.6 nM.

For `COC[C@@H](C)NC(=O)c1c[nH]c2ncc(-c3nn(C)c4cc(Cl)ccc34)nc12` [Example I-159, 2-(6-Chloro-1-methyl-1H-indazol-3-yl)-5H-pyrrolo[2,3-b]pyrazine-7-carboxylic acid ((R)-2-methoxy-1-methyl-ethyl)-amide], the IC50 [1] was 66.5 nM and the IC50 [2] was 5.83 nM.

Work on `CC(C)(C)NC(=O)c1c[nH]c2ncc(-c3cccc4[nH]ncc34)nc12` [Example I-399, 2-(1H-Indazol-4-yl)-5H-pyrrolo[2,3-b]pyrazine-7-carboxylic acid tert-butylamide] yielded an IC50 [1] of 4.73 nM and an IC50 [2] of 18.1 nM.

Work on `CC(C)NC(=O)c1c[nH]c2ncc(-c3nn(C)c4cc(Cl)cc(F)c34)nc12` [Example I-127, 2-(6-Chloro-4-fluoro-1-methyl-1H-indazol-3-yl)-5H-pyrrolo[2,3-b]pyrazine-7-carboxylic acid isopropylamide] yielded an IC50 [1] of 22.6 nM and an IC50 [2] of 11 nM.

`CC(NC(=O)c1c[nH]c2ncc(-c3nn(C)c4cc(F)ccc34)nc12)c1ccno1` (centres unmarked) [Example I-55, 2-(6-Fluoro-1-methyl-1H-indazol-3-yl)-5H-pyrrolo[2,3-b]pyrazine-7-carboxylic acid (1-isoxazol-5-yl-ethyl)-amide] gave an IC50 [1] of 56.4 nM and an IC50 [2] of 16.9 nM.

With `COC[C@H](C)NC(=O)c1c[nH]c2ncc(-c3nn(C)c4cc(Cl)ccc34)nc12` [Example I-165, 2-(6-Chloro-1-methyl-1H-indazol-3-yl)-5H-pyrrolo[2,3-b]pyrazine-7-carboxylic acid ((S)-2-methoxy-1-methyl-ethyl)-amide] the IC50 [1] was 17 nM and the IC50 [2] was 1.14 nM.

`CC(C)NC(=O)c1c[nH]c2ncc(-c3nn(C4CNC4)c4cc(F)ccc34)nc12` [Example I-104, 2-(1-Azetidin-3-yl-6-fluoro-1H-indazol-3-yl)-5H-pyrrolo[2,3-b]pyrazine-7-carboxylic acid isopropylamide] was tested, and the IC50 [1] was 41 nM and the IC50 [2] was 5.68 nM.

`CC(NC(=O)c1c[nH]c2ncc(-c3nn(C)c4cc(Cl)ccc34)nc12)C(F)(F)F` (centres unmarked) [Example I-160, 2-(6-Chloro-1-methyl-1H-indazol-3-yl)-5H-pyrrolo[2,3-b]pyrazine-7-carboxylic acid (2,2,2-trifluoro-1-methyl-ethyl)-amide] showed an IC50 [1] of 37.3 nM and an IC50 [2] of 19.4 nM.

`COC[C@H](C)NC(=O)c1c[nH]c2ncc(-c3nc(Cl)n4cc(F)ccc34)nc12` [Example I-39, 2-(3-Chloro-6-fluoro-imidazo[1,5-a]pyridin-1-yl)-5H-pyrrolo[2,3-b]pyrazine-7-carboxylic acid ((S)-2-methoxy-1-methyl-ethyl)-amide] was tested, and the IC50 [1] was 243 nM and the IC50 [2] was 5.81 nM.

`COC[C@H](C)NC(=O)c1c[nH]c2ncc(-c3nn(CCN4CCCC4)c4cc(F)ccc34)nc12` [Example I-242, 2-[6-Fluoro-1-(2-pyrrolidin-1-yl-ethyl)-1H-indazol-3-yl]-5H-pyrrolo[2,3-b]pyrazine-7-carboxylic acid ((S)-2-methoxy-1-methyl-ethyl)-amide] showed an IC50 [1] of 209 nM and an IC50 [2] of 2.1 nM.

`CC(NC(=O)c1c[nH]c2ncc(-c3nn(C)c4cc(F)ccc34)nc12)C(O)C1CCOCC1` (single isomer, unassigned) [Example I-204, 2-(6-Fluoro-1-methyl-1H-indazol-3-yl)-5H-pyrrolo[2,3-b]pyrazine-7-carboxylic acid [trans-2-hydroxy-1-methyl-2-(tetrahydro-pyran-4-yl)-ethyl]-amide] gave an IC50 [1] of 205 nM and an IC50 [2] of 217 nM.

`Cn1nc(-c2cnc3[nH]cc(C(=O)N[C@H]4CC[C@@H](O)CC4)c3n2)c2ccc(Cl)cc21` [Example I-158, 2-(6-Chloro-1-methyl-1H-indazol-3-yl)-5H-pyrrolo[2,3-b]pyrazine-7-carboxylic acid (cis-4-hydroxy-cyclohexyl)-amide] gave an IC50 [1] of 9.7 nM and an IC50 [2] of 2.02 nM.

`Cn1nc(-c2cnc3[nH]cc(C(=O)NC4(C)CC4)c3n2)c2ccc(F)cc21` [Example I-378, 2-(6-Fluoro-1-methyl-1H-indazol-3-yl)-5H-pyrrolo[2,3-b]pyrazine-7-carboxylic acid (1-methyl-cyclopropyl)-amide] was tested, and the IC50 [1] was 3.08 nM and the IC50 [2] was 12.8 nM.

`Cn1nc(-c2cnc3[nH]cc(C(=O)NCCN)c3n2)c2ccc(Cl)cc21` [Example I-143, 2-(6-Chloro-1-methyl-1H-indazol-3-yl)-5H-pyrrolo[2,3-b]pyrazine-7-carboxylic acid (2-amino-ethyl)-amide] was tested, and the IC50 [1] was 54.9 nM and the IC50 [2] was > 1000 nM and 536 nM.
